Results from patent US20230372333A1, “COMBINATION THERAPY FOR TREATING CANCER” (ASTRAZENECA AB, priority 2020, published 2023).
Entries after “also recorded” stand apart in the source; their conditions may differ.

Assays:
HBCx-9 = HBCx-9 TNBC PDX model, reference [2]; cited from earlier work
[1] = system: HBCx-9 patient-derived explant model; assay: Anti-tumour efficacy of AZD5305, carboplatin and combination in HBCx-9 PDX model (Example 2); format: in vivo; settings: carboplatin 50 mg/kg IP QW, 28 days, Nude female mice
Source text: HBCx-9 is a patient-derived tumour explant (PDX) model established in XenTech without prior in vitro culture. Tumour fragments were transplanted subcutaneously (SC) onto donor mice. When tumour volume reached 700 to 1764 mm^3, donor mice were sacrificed, and tumours were aseptically excised and dissected. After removing necrotic areas, tumours were cut into fragments measuring approximately 20 mm^3 and transferred in culture medium before grafting SC into the recipient (experimental) Nude female mice. Tumours were measured (length×width) two times weekly by bilateral Vernier calliper measurements and tumour volume was calculated using elliptical formula (π/6×width×width×length). Animal bodyweight and tumour condition were monitored throughout the study. Mice were randomised into treatment groups when mean tumour volume reached approximately 100 mm^3. Animals were treated from the day after the randomisation. […]
(§1) Tumour growth inhibition from start of treatment was assessed by comparison of the mean change in tumour volume of the control and treated groups and represented as percent tumour growth inhibition (TGI, when TV≤starting TV) or regression (reg, when TV<starting TV). Mean percent body weight change from start of treatment was also calculated for all the groups. Statistical significance was evaluated using a one-tailed t test. […]

SUM149PT xenograft model = assay: Anti-tumour efficacy of AZD5305, carboplatin and combination in SUM149PT xenograft model (Example 3); format: in vivo, mice; settings: AZD5305 0.01 mg/kg PO QD, 28 days
Description: SUM149PT cells (2×10^6) were implanted with 50% Matrigel into mammary fat pad (MFP) of female SCID mice (weight greater than 18 g). Tumours were measured (length×width) two times weekly by bilateral Vernier calliper measurements and tumour volume was calculated using elliptical formula (π/6×width×width×length). Animal bodyweight and tumour condition were monitored throughout the studies. Mice were randomised into treatment groups when mean tumour volume reached approximately 0.3 cm^3. Animals were treated from the day after the randomisation. Control animals were treated orally (PO) once daily (QD) with vehicle (deionised water acidified with HCl to pH 3.5-4) and intraperitoneally (IP) once weekly (QW) with PBS. AZD5305 was dosed PO QD at 0.1, 0.03 or 0.01 mg/kg. Carboplatin was dosed IP once weekly (QW) at 37.5 mg/kg. In the combination group, mice were dosed with carboplatin first, followed by AZD5305 administration within 10 minutes.
as §1, with “TV≥starting” for “TV≤starting”

Q: With `O=C(c1cc(Cc2n[nH]c(=O)c3ccccc23)ccc1F)N1CCN(C(=O)C2CC2)CC1` [olaparib] as the molecule, how does the “sensitivity of HBCx-9 to monotherapy” value (HBCx-9) read?
A: The value was “moderate sensitivity”.

Q: Which “Tumour Growth Inhibition/Regression (end of treatment): TGI” value [1] does the source give for `N.N.O=C([O-])C1(C(=O)[O-])CCC1.[Pt+2]` [Carboplatin, carboplatin] here?
A: The value was 88% TGI *** (p ≤ 0.001).

Q: What about the “Tumour Growth Inhibition/Regression (end of treatment): TGI” value ([1]; listed as carboplatin) of the same molecule?
A: The value was 88%.

Q: Which “Tumour Growth Inhibition/Regression (end of treatment)” value (SUM149PT xenograft model) does the source give for `CCc1cc2ncc(CN3CCN(c4ccc(C(=O)NC)nc4)CC3)cc2[nH]c1=O` [AZD5305, 5-[4-[(7-ethyl-6-oxo-5H-1,5-naphthyridin-3-yl)methyl]piperazin-1-yl]-N-methyl-pyridine-2-carboxamide] here?
A: The value was “did not inhibit tumour growth; also recorded: No TGI or regression”.
